In publication PMC5218480 (PLoS ONE, 2017):

System: MV-4-11 cells
Assay: Gene expression microarray analysis (Affymetrix PrimeView) and GSEA
Assay type: cell-based, human
Set-up: RFU PODN (11730768_x_at) / Fold change /veh PODN (11730768_x_at) / RFU LINC00158 (11744669_a_at) / Fold change /veh LINC00158 (11744669_a_at) / RFU DUSP10 (11751237_a_at) / Fold change /veh DUSP10 (11751237_a_at) / RFU ID3 (11757404_x_at) / Fold change /veh ID3 (11757404_x_at) / RFU PLEKHG5 (11737974_s_at) / Fold change /veh PLEKHG5 (11737974_s_at) / RFU LRRC4B (11730491_at) / Fold change /veh LRRC4B (11730491_at) / RFU GIMAP4 (11747438_a_at) / Fold change /veh GIMAP4 (11747438_a_at) / RFU KRT8 (11758183_x_at) / Fold change /veh KRT8 (11758183_x_at) / RFU CNN1 (11734310_a_at) / Fold change /veh CNN1 (11734310_a_at) / RFU VPS37D (11726825_at) / Fold change /veh VPS37D (11726825_at) / RFU C10orf10 (11716522_x_at) / Fold change /veh C10orf10 (11716522_x_at) / RFU KIR2DL2 /// KIR2DL4 /// KIR2DL5A /// KIR2DL5B /// KIR2DS1 /// KIR2DS2 /// KIR2DS3 /// KIR2DS4 /// KIR3DL3 /// KIR3DL3 /// KIR3DS1 (11738374_at) / Fold change /veh KIR2DL2 /// KIR2DL4 /// KIR2DL5A /// KIR2DL5B /// KIR2DS1 /// KIR2DS2 /// KIR2DS3 /// KIR2DS4 /// KIR3DL3 /// KIR3DL3 /// KIR3DS1 (11738374_at) / RFU C1QL1 (11718748_at) / Fold change /veh C1QL1 (11718748_at) / RFU TMPRSS4 (11747572_a_at) / Fold change /veh TMPRSS4 (11747572_a_at) / RFU HAMP (11756126_x_at) / Fold change /veh HAMP (11756126_x_at) / RFU RNFT2 (11725882_a_at) / Fold change /veh RNFT2 (11725882_a_at) / RFU NR4A2 (11747474_a_at) / Fold change /veh NR4A2 (11747474_a_at) / RFU ABCC12 (11746883_a_at) / Fold change /veh ABCC12 (11746883_a_at) / RFU TMEM136 (11760407_x_at) / Fold change /veh TMEM136 (11760407_x_at) / RFU CLDN22 /// WWC2 (11732394_at) / Fold change /veh CLDN22 /// WWC2 (11732394_at) / RFU HLA-DPB1 (11760878_x_at) / Fold change /veh HLA-DPB1 (11760878_x_at) / RFU SPINT1 (11716480_a_at) / Fold change /veh SPINT1 (11716480_a_at) / RFU GAP43 (11754022_s_at) / Fold change /veh GAP43 (11754022_s_at) / RFU A4GNT (11735810_at) / Fold change /veh A4GNT (11735810_at) / RFU PRB3 (11715151_x_at) / Fold change /veh PRB3 (11715151_x_at) / RFU TUBB4B (11761932_at) / Fold change /veh TUBB4B (11761932_at) / RFU CAPN14 (11732068_a_at) / Fold change /veh CAPN14 (11732068_a_at) / RFU TMCC2 (11721928_a_at) / Fold change /veh TMCC2 (11721928_a_at) / RFU IRGQ (11745062_a_at) / Fold change /veh IRGQ (11745062_a_at) / RFU FAM174B (11720279_a_at) / Fold change /veh FAM174B (11720279_a_at) / RFU TMPRSS4 (11748680_a_at) / Fold change /veh TMPRSS4 (11748680_a_at) / RFU FAM212B (11763350_a_at) / Fold change /veh FAM212B (11763350_a_at) / RFU PLEKHG5 (11743358_a_at) / Fold change /veh PLEKHG5 (11743358_a_at) / RFU ZSCAN30 (11745921_a_at) / Fold change /veh ZSCAN30 (11745921_a_at) / RFU CMKLR1 (11741424_a_at) / Fold change /veh CMKLR1 (11741424_a_at) / RFU LOC101060620 /// MAPK8IP1 (11723275_at) / Fold change /veh LOC101060620 /// MAPK8IP1 (11723275_at) / RFU SPTSSB (11747773_x_at) / Fold change /veh SPTSSB (11747773_x_at) / RFU PRSS12 (11739890_at) / Fold change /veh PRSS12 (11739890_at) / RFU BIN1 (11741810_x_at) / Fold change /veh BIN1 (11741810_x_at) / RFU WNT11 (11732464_a_at) / Fold change /veh WNT11 (11732464_a_at) / RFU C10orf10 (11716521_a_at) / Fold change /veh C10orf10 (11716521_a_at) / RFU C5orf56 (11738089_at) / Fold change /veh C5orf56 (11738089_at) / RFU CYB561 (11721691_x_at) / Fold change /veh CYB561 (11721691_x_at) / RFU ANKRD19P (11752326_a_at) / Fold change /veh ANKRD19P (11752326_a_at) / RFU OR2T12 /// OR2T33 /// OR2T8 (11738714_s_at) / Fold change /veh OR2T12 /// OR2T33 /// OR2T8 (11738714_s_at) / RFU VCAN (11748164_a_at) / Fold change /veh VCAN (11748164_a_at) / RFU JSRP1 (11732532_at) / Fold change /veh JSRP1 (11732532_at) / RFU KRTAP10-11 (11738290_x_at) / Fold change /veh KRTAP10-11 (11738290_x_at) / RFU MYO3A (11730013_a_at) / Fold change /veh MYO3A (11730013_a_at) / RFU EBF3 (11725865_a_at) / Fold change /veh EBF3 (11725865_a_at) / RFU CAMK2N1 (11719241_x_at) / Fold change /veh CAMK2N1 (11719241_x_at) / RFU C5orf56 (11738088_a_at) / Fold change /veh C5orf56 (11738088_a_at) / RFU OLFML3 (11715873_a_at) / Fold change /veh OLFML3 (11715873_a_at) / RFU LOC100653217 /// NTM (11731650_a_at) / Fold change /veh LOC100653217 /// NTM (11731650_a_at) / RFU MAPK11 (11762145_a_at) / Fold change /veh MAPK11 (11762145_a_at) / RFU FIZ1 (11724087_x_at) / Fold change /veh FIZ1 (11724087_x_at) / RFU OASL (11726364_x_at) / Fold change /veh OASL (11726364_x_at) / RFU SOX15 (11748057_x_at) / Fold change /veh SOX15 (11748057_x_at) / RFU CD79A (11719716_a_at) / Fold change /veh CD79A (11719716_a_at) / RFU HIST1H1D (11736915_at) / Fold change /veh HIST1H1D (11736915_at) / RFU CASKIN2 (11723855_a_at) / Fold change /veh CASKIN2 (11723855_a_at) / RFU LOC730098 (11760151_x_at) / Fold change /veh LOC730098 (11760151_x_at) / RFU OR4N2 (11742367_at) / Fold change /veh OR4N2 (11742367_at) / RFU PRRT2 (11749266_a_at) / Fold change /veh PRRT2 (11749266_a_at) / RFU SNX32 (11753110_a_at) / Fold change /veh SNX32 (11753110_a_at) / RFU CDHR5 (11726645_a_at) / Fold change /veh CDHR5 (11726645_a_at) / RFU RCAN1 (11760418_a_at) / Fold change /veh RCAN1 (11760418_a_at) / RFU FAM167A (11723789_a_at) / Fold change /veh FAM167A (11723789_a_at) / RFU FAM26E (11764081_at) / Fold change /veh FAM26E (11764081_at) / RFU ISYNA1 (11749810_s_at) / Fold change /veh ISYNA1 (11749810_s_at) / RFU ACY1 (11761880_at) / Fold change /veh ACY1 (11761880_at) / RFU 11764098_at / Fold change /veh 11764098_at / RFU SAMD14 (11745864_x_at) / Fold change /veh SAMD14 (11745864_x_at) / RFU NPB (11741838_a_at) / Fold change /veh NPB (11741838_a_at) / RFU TMPRSS6 (11731388_a_at) / Fold change /veh TMPRSS6 (11731388_a_at) / RFU KRTAP10-2 (11738614_at) / Fold change /veh KRTAP10-2 (11738614_at) / RFU ARHGAP8 /// PRR5-ARHGAP8 (11727945_x_at) / Fold change /veh ARHGAP8 /// PRR5-ARHGAP8 (11727945_x_at) / RFU KRTAP5-7 /// NADSYN1 (11734609_at) / Fold change /veh KRTAP5-7 /// NADSYN1 (11734609_at) / RFU RASL12 (11751679_a_at) / Fold change /veh RASL12 (11751679_a_at) / RFU CDKN2B (11736163_a_at) / Fold change /veh CDKN2B (11736163_a_at) / RFU PRF1 (11729649_at) / Fold change /veh PRF1 (11729649_at) / RFU, ZNF638 /// ZNF638-IT1 / Fold change vs veh, ZNF638 /// ZNF638-IT1 / RFU, PANK3 / Fold change vs veh, PANK3 / RFU, SH3YL1 / Fold change vs veh, SH3YL1 / RFU, ZEB2 / Fold change vs veh, ZEB2 / RFU, NRIP1 / Fold change vs veh, NRIP1 / RFU, PTTG1IP / Fold change vs veh, PTTG1IP / RFU, CAPN2 / Fold change vs veh, CAPN2 / RFU, MED14 / Fold change vs veh, MED14 / RFU, SNORA58 / Fold change vs veh, SNORA58 / RFU, C1orf63 / Fold change vs veh, C1orf63 / RFU, LRRFIP1 / Fold change vs veh, LRRFIP1 / RFU, NDUFAF7 / Fold change vs veh, NDUFAF7 / RFU, SLC12A2 / Fold change vs veh, SLC12A2 / RFU, IBTK / Fold change vs veh, IBTK / RFU, ESF1 / Fold change vs veh, ESF1 / Fold change vs veh, TMEM50B / RFU, TAOK1 / Fold change vs veh, TAOK1 / RFU, ACBD3 / Fold change vs veh, ACBD3 / RFU, TMA16 / Fold change vs veh, TMA16 / RFU, RWDD3 / Fold change vs veh, RWDD3 / RFU, BCAT1 / Fold change vs veh, BCAT1 / RFU, EDEM3 / Fold change vs veh, EDEM3 / RFU, TMEM33 / Fold change vs veh, TMEM33 / RFU, WDR75 / Fold change vs veh, WDR75 / RFU, AHCTF1 / Fold change vs veh, AHCTF1 / RFU, TFRC / Fold change vs veh, TFRC / RFU, ZDHHC17 / Fold change vs veh, ZDHHC17 / RFU, NOM1 / Fold change vs veh, NOM1 / RFU, ARL8B / Fold change vs veh, ARL8B / RFU, ZBTB11 / Fold change vs veh, ZBTB11 / RFU, TAMM41 / Fold change vs veh, TAMM41 / RFU, KIAA1704 /// LOC100996395 / Fold change vs veh, KIAA1704 /// LOC100996395 / RFU, ING1 / Fold change vs veh, ING1 / RFU, TRMT61B / Fold change vs veh, TRMT61B / RFU, FUBP3 / Fold change vs veh, FUBP3 / RFU, TP53 / Fold change vs veh, TP53 / RFU, TNKS2 / Fold change vs veh, TNKS2 / RFU, ZFP14 / Fold change vs veh, ZFP14 / RFU, ACTR2 / Fold change vs veh, ACTR2 / RFU, PPP3R1 / Fold change vs veh, PPP3R1 / RFU, PIK3R1 / Fold change vs veh, PIK3R1 / RFU, HNRNPA1 / Fold change vs veh, HNRNPA1 / RFU, RNF170 / Fold change vs veh, RNF170 / RFU, ZNF28 / Fold change vs veh, ZNF28 / RFU, RNGTT / Fold change vs veh, RNGTT / RFU, OGT / Fold change vs veh, OGT / RFU, BRD1 / Fold change vs veh, BRD1 / RFU, MARS / Fold change vs veh, MARS / RFU, ZNF655 / Fold change vs veh, ZNF655 / RFU, FAHD1 / Fold change vs veh, FAHD1 / RFU, BDP1 / Fold change vs veh, BDP1 / RFU, LRRCC1 / Fold change vs veh, LRRCC1 / RFU, ARID1A / Fold change vs veh, ARID1A / RFU, ZNF146 / Fold change vs veh, ZNF146 / RFU, ZNF330 / Fold change vs veh, ZNF330 / RFU, GPN3 / Fold change vs veh, GPN3 / RFU, C9orf123 / Fold change vs veh, C9orf123 / RFU, N4BP2L2 / Fold change vs veh, N4BP2L2 / RFU, ARFIP1 / Fold change vs veh, ARFIP1 / RFU, FAM179B / Fold change vs veh, FAM179B / RFU, BCL10 / Fold change vs veh, BCL10 / RFU, UHRF1BP1L / Fold change vs veh, UHRF1BP1L / RFU, BET1 / Fold change vs veh, BET1 / RFU, CNOT2 / Fold change vs veh, CNOT2 / RFU, ZNF268 / Fold change vs veh, ZNF268 / Fold change vs veh, ZNF507 / RFU, DGCR2 / Fold change vs veh, DGCR2 / RFU, WDSUB1 / Fold change vs veh, WDSUB1 / Fold change vs veh, HSP90B1 /// MIR3652 / RFU, ADSS / Fold change vs veh, ADSS / RFU, GK / Fold change vs veh, GK / RFU, ZNF148 / Fold change vs veh, ZNF148 / RFU, TAF9 / Fold change vs veh, TAF9 / RFU, SLC1A5 / Fold change vs veh, SLC1A5 / RFU, SLMO2 / Fold change vs veh, SLMO2 / RFU, ABCC4 / Fold change vs veh, ABCC4 / RFU, LOC101060439 /// RAP1B / Fold change vs veh, LOC101060439 /// RAP1B / RFU, RFX7 / Fold change vs veh, RFX7 / RFU, GTPBP10 / Fold change vs veh, GTPBP10 / RFU, CNEP1R1 / Fold change vs veh, CNEP1R1 / RFU, BIVM-ERCC5 /// ERCC5 / Fold change vs veh, BIVM-ERCC5 /// ERCC5 / RFU, ILF3 / Fold change vs veh, ILF3 / RFU 11762660_at / Fold change /veh 11762660_at / RFU VCAN (11757783_s_at) / Fold change /veh VCAN (11757783_s_at) / RFU DDX43 (11728927_at) / Fold change /veh DDX43 (11728927_at) / RFU KRT8 (11758188_x_at) / Fold change /veh KRT8 (11758188_x_at) / RFU NKD1 (11759106_at) / Fold change /veh NKD1 (11759106_at) / RFU SRD5A1 (11742802_a_at) / Fold change /veh SRD5A1 (11742802_a_at) / RFU TPSAB1 /// TPSB2 (11721975_s_at) / Fold change /veh TPSAB1 /// TPSB2 (11721975_s_at) / RFU GSTM3 (11746129_a_at) / Fold change /veh GSTM3 (11746129_a_at) / RFU IL23R (11737362_x_at) / Fold change /veh IL23R (11737362_x_at) / RFU TMEM51 (11727254_a_at) / Fold change /veh TMEM51 (11727254_a_at) / RFU PIWIL2 (11732686_x_at) / Fold change /veh PIWIL2 (11732686_x_at) / RFU ORM1 (11744905_x_at) / Fold change /veh ORM1 (11744905_x_at) / RFU CCDC152 (11743942_at) / Fold change /veh CCDC152 (11743942_at) / RFU ECM1 (11717891_a_at) / Fold change /veh ECM1 (11717891_a_at) / RFU IL23R (11748794_a_at) / Fold change /veh IL23R (11748794_a_at) / RFU TNFAIP8L3 (11732012_x_at) / Fold change /veh TNFAIP8L3 (11732012_x_at) / RFU MBOAT4 (11741988_at) / Fold change /veh MBOAT4 (11741988_at) / RFU 11764193_at / Fold change /veh 11764193_at / RFU TMEM53 (11763286_at) / Fold change /veh TMEM53 (11763286_at) / RFU MAGEB2 (11727129_at) / Fold change /veh MAGEB2 (11727129_at) / RFU TMEM200A (11744735_a_at) / Fold change /veh TMEM200A (11744735_a_at) / RFU CCDC152 (11751479_a_at) / Fold change /veh CCDC152 (11751479_a_at) / RFU FAM211A (11726209_a_at) / Fold change /veh FAM211A (11726209_a_at) / RFU RGS16 (11746705_a_at) / Fold change /veh RGS16 (11746705_a_at) / RFU VCAN (11755009_s_at) / Fold change /veh VCAN (11755009_s_at) / RFU RHOB (11743442_s_at) / Fold change /veh RHOB (11743442_s_at) / RFU RGS16 (11720943_a_at) / Fold change /veh RGS16 (11720943_a_at) / RFU RGS16 (11720944_at) / Fold change /veh RGS16 (11720944_at) / RFU, VPS4B / Fold change vs veh, VPS4B / RFU, CREB1 / Fold change vs veh, CREB1 / RFU, DNAJC13 / Fold change vs veh, DNAJC13 / RFU, GNAQ / Fold change vs veh, GNAQ / RFU, CDK5R1 / Fold change vs veh, CDK5R1 / RFU, ZRANB3 / Fold change vs veh, ZRANB3 / RFU, CUL4A / Fold change vs veh, CUL4A / RFU, CCNY / Fold change vs veh, CCNY / RFU, UFL1 / Fold change vs veh, UFL1 / RFU, COG3 / Fold change vs veh, COG3 / RFU, DIAPH2 / Fold change vs veh, DIAPH2 / RFU, SKA2 / Fold change vs veh, SKA2 / RFU, AFF3 / Fold change vs veh, AFF3 / RFU, LMF1 / Fold change vs veh, LMF1 / RFU, IPO11 / Fold change vs veh, IPO11 / RFU, DFFB / Fold change vs veh, DFFB / RFU, FOXP1 / Fold change vs veh, FOXP1 / RFU, CARD8 / Fold change vs veh, CARD8 / RFU, STRN3 / Fold change vs veh, STRN3 / RFU, ADK / Fold change vs veh, ADK / RFU, RASSF2 / Fold change vs veh, RASSF2 / RFU, WIPF1 / Fold change vs veh, WIPF1 / RFU, LARP1B / Fold change vs veh, LARP1B / RFU, RASA1 / Fold change vs veh, RASA1 / RFU, RB1 / Fold change vs veh, RB1 / RFU, PPFIA1 / Fold change vs veh, PPFIA1 / RFU, MAT2A / Fold change vs veh, MAT2A / RFU, CCT5 / Fold change vs veh, CCT5 / RFU, WDR92 / Fold change vs veh, WDR92 / RFU, CUX1 / Fold change vs veh, CUX1 / RFU, TTC7A / Fold change vs veh, TTC7A / RFU, TMEM135 / Fold change vs veh, TMEM135 / RFU, DEPTOR / Fold change vs veh, DEPTOR / RFU, CPM / Fold change vs veh, CPM / RFU, DNAJB6 / Fold change vs veh, DNAJB6 / RFU, CACNA2D3 / Fold change vs veh, CACNA2D3 / RFU, DTX4 / Fold change vs veh, DTX4 / RFU, TFCP2 / Fold change vs veh, TFCP2 / RFU, GMCL1 /// GMCL1P1 / Fold change vs veh, GMCL1 /// GMCL1P1 / RFU, AEBP2 / Fold change vs veh, AEBP2 / RFU, SNHG1 /// SNORD22 /// SNORD25 /// SNORD26 /// SNORD27 /// SNORD28 /// SNORD29 /// SNORD31 / Fold change vs veh, SNHG1 /// SNORD22 /// SNORD25 /// SNORD26 /// SNORD27 /// SNORD28 /// SNORD29 /// SNORD31 / Fold change (Aza/veh), C12orf56 (ProbeSet 11735607_a_at) / Fold change (ACY-1035/veh), C12orf56 (ProbeSet 11735607_a_at) / Fold change (Aza/veh), FGFR1OP (ProbeSet 11751329_s_at) / Fold change (ACY-1035/veh), FGFR1OP (ProbeSet 11751329_s_at) / Fold change (Aza/veh), VPS36 (ProbeSet 11739960_a_at) / Fold change (ACY-1035/veh), VPS36 (ProbeSet 11739960_a_at) / RFU SYPL1 (11715823_x_at) / Fold change /veh SYPL1 (11715823_x_at) / RFU IGFBP7 (11715501_s_at) / Fold change /veh IGFBP7 (11715501_s_at) / RFU REEP3 (11722064_at) / Fold change /veh REEP3 (11722064_at) / RFU IGLL1 (11728026_x_at) / Fold change /veh IGLL1 (11728026_x_at): dose or concentration left out as unconfirmed
Conditions: ProbeSet 11752001_a_at; LIST D

SMILES: Nc1ncn([C@@H]2O[C@H](CO)[C@@H](O)[C@H]2O)c(=O)n1 [azacitidine]
- RFU, CUL4A: 406.78 RFU
